US20040006070A1, “Intraspinal continuous infusion of midazolam hydrochloride for the treatment of pain” (priority 2002, published 2004)
Counter-ions that a name gives are not always drawn.

Assay: Bloodwork: complete blood count, electrolytes, extended blood chemistry
Assay type: in vivo, sheep
Details: for Total Bili: ref 0.14-0.32; for Creatinine: ref 1-2.7; for Albumin: ref 2.4-3; for K+: ref 3.9-5.4; for Phos: ref 5-7.3; for Total Prot: ref 6-7.9
Experimental: Indirect blood pressure, pulse recording, pain testing (mechanical stimulus device, cold and warm water baths see description in procedure) and weight were taken on days 1, 3, 7, 15, 22, 29, 36, and 43. Venous blood samples (15 ml drawn from the jugular vein with Vacutainer brand blood collection tubes) for complete blood count, electrolytes, and extended blood chemistry were drawn on days 1, 15, and 43 (mild procedure only light hand restraint necessary).

Cc1ncc2n1-c1ccc(Cl)cc1C(c1ccccc1F)=NC2 [Midazolam, midazolam hydrochloride]
AST (sheep #473, 3 mg/day, Day 1): 239 U/L | Alk Phos (sheep #473, 3 mg/day, Day 1): 41 U/L | BUN (sheep #473, 3 mg/day, Day 1): 10 mg/dL | CPK (sheep #473, 3 mg/day, Day 1): 392 U/L | Cholesterol (sheep #473, 3 mg/day, Day 1): 72 mg/dL | Differential Count: Eosin (sheep #473, 3 mg/day, Day 1): 1% | Differential Count: Lymph (sheep #473, 3 mg/day, Day 1): 39% | Differential Count: Mono (sheep #473, 3 mg/day, Day 1): 1% | Differential Count: Seg (sheep #473, 3 mg/day, Day 1): 59% | Gamma GT (sheep #473, 3 mg/day, Day 1): 69 U/L | Glucose (sheep #473, 3 mg/day, Day 1): 91 mg/dL | Hct (sheep #473, 3 mg/day, Day 1): 33.0% | Hgb (sheep #473, 3 mg/day, Day 1): 11.3 g/dL | MCH (sheep #473, 3 mg/day, Day 1): 9.7 pg | MCHC (sheep #473, 3 mg/day, Day 1): 32.2 G/dl | MCV (sheep #473, 3 mg/day, Day 1): 30.0 fL | Na+ (sheep #473, 3 mg/day, Day 1): 153 mEq/l | Platlet Count (sheep #473, 3 mg/day, Day 1): 666000 µL⁻¹ | RBC (sheep #473, 3 mg/day, Day 1): 1.1e+07 µL⁻¹ | WBC (sheep #473, 3 mg/day, Day 1): 5800 µL⁻¹ | Total Bili (sheep #473, 3 mg/day, Day 1): 0.2 mg/dL | Creatinine (sheep #473, 3 mg/day, Day 1): 1.0 mg/dL | Albumin (sheep #473, 3 mg/day, Day 1): 3.4 g/dL | K+ (sheep #473, 3 mg/day, Day 1): 4.4 mEq/l | Phos (sheep #473, 3 mg/day, Day 1): 6.9 mg/dL | Total Prot (sheep #473, 3 mg/day, Day 1): 6.5 g/dL | ALT (sheep #473, 3 mg/day, Day 15): 1 U/L | AST (sheep #473, 3 mg/day, Day 15): 85 U/L | Alk Phos (sheep #473, 3 mg/day, Day 15): 59 U/L | BUN (sheep #473, 3 mg/day, Day 15): 10 mg/dL | CPK (sheep #473, 3 mg/day, Day 15): 98 U/L | Cholesterol (sheep #473, 3 mg/day, Day 15): 79 mg/dL | Differential Count: Eosin (sheep #473, 3 mg/day, Day 15): 6% | Differential Count: Lymph (sheep #473, 3 mg/day, Day 15): 53% | Differential Count: Mono (sheep #473, 3 mg/day, Day 15): 1% | Differential Count: Seg (sheep #473, 3 mg/day, Day 15): 40% | Gamma GT (sheep #473, 3 mg/day, Day 15): 59 U/L | Glucose (sheep #473, 3 mg/day, Day 15): 74 mg/dL | Hct (sheep #473, 3 mg/day, Day 15): 41.0% | Hgb (sheep #473, 3 mg/day, Day 15): 12.9 g/dL | MCH (sheep #473, 3 mg/day, Day 15): 9.3 pg | MCHC (sheep #473, 3 mg/day, Day 15): 31.5 G/dl | MCV (sheep #473, 3 mg/day, Day 15): 29.6 fL | Na+ (sheep #473, 3 mg/day, Day 15): 152 mEq/l | Platlet Count (sheep #473, 3 mg/day, Day 15): 336000 µL⁻¹ | RBC (sheep #473, 3 mg/day, Day 15): 1.25e+07 µL⁻¹ | WBC (sheep #473, 3 mg/day, Day 15): 5100 µL⁻¹ | Total Bili (sheep #473, 3 mg/day, Day 15): 0.1 mg/dL | Creatinine (sheep #473, 3 mg/day, Day 15): 1.2 mg/dL | Albumin (sheep #473, 3 mg/day, Day 15): 3.7 g/dL | K+ (sheep #473, 3 mg/day, Day 15): 4.6 mEq/l | Phos (sheep #473, 3 mg/day, Day 15): 5.8 mg/dL | Total Prot (sheep #473, 3 mg/day, Day 15): 6.7 g/dL | ALT (sheep #473, 3 mg/day, Day 43): 8 U/L | AST (sheep #473, 3 mg/day, Day 43): 61 U/L | Alk Phos (sheep #473, 3 mg/day, Day 43): 73 U/L | BUN (sheep #473, 3 mg/day, Day 43): 15 mg/dL | CPK (sheep #473, 3 mg/day, Day 43): 82 U/L | Cholesterol (sheep #473, 3 mg/day, Day 43): 78 mg/dL | Differential Count: Eosin (sheep #473, 3 mg/day, Day 43): 2% | Differential Count: Lymph (sheep #473, 3 mg/day, Day 43): 60% | Differential Count: Mono (sheep #473, 3 mg/day, Day 43): 2% | Differential Count: Seg (sheep #473, 3 mg/day, Day 43): 36% | Gamma GT (sheep #473, 3 mg/day, Day 43): 58 U/L | Glucose (sheep #473, 3 mg/day, Day 43): 59 mg/dL | Hct (sheep #473, 3 mg/day, Day 43): 41.5% | Hgb (sheep #473, 3 mg/day, Day 43): 12.9 g/dL | MCH (sheep #473, 3 mg/day, Day 43): 9.4 pg | MCHC (sheep #473, 3 mg/day, Day 43): 31.1 G/dl | MCV (sheep #473, 3 mg/day, Day 43): 30.2 fL | Na+ (sheep #473, 3 mg/day, Day 43): 150 mEq/l | Platlet Count (sheep #473, 3 mg/day, Day 43): 263000 µL⁻¹ | RBC (sheep #473, 3 mg/day, Day 43): 1.373e+07 µL⁻¹ | WBC (sheep #473, 3 mg/day, Day 43): 3400 µL⁻¹ | Total Bili (sheep #473, 3 mg/day, Day 43): 0.0 mg/dL | Creatinine (sheep #473, 3 mg/day, Day 43): 1.5 mg/dL | Albumin (sheep #473, 3 mg/day, Day 43): 3.4 g/dL | K+ (sheep #473, 3 mg/day, Day 43): 5.6 mEq/l | Phos (sheep #473, 3 mg/day, Day 43): 5.3 mg/dL | Total Prot (sheep #473, 3 mg/day, Day 43): 6.4 g/dL | ALT (sheep #498, 10 mg/day, Day 1): 8.0 U/L | AST (sheep #498, 10 mg/day, Day 1): 95 U/L | Alk Phos (sheep #498, 10 mg/day, Day 1): 45 U/L | BUN (sheep #498, 10 mg/day, Day 1): 9.0 Mg/dl | CPK (sheep #498, 10 mg/day, Day 1): 89 U/L | Cholesterol (sheep #498, 10 mg/day, Day 1): 63 Mg/dl | Differential Count: Atyp lym (sheep #498, 10 mg/day, Day 1): 2% | Differential Count: Baso (sheep #498, 10 mg/day, Day 1): 1% | Differential Count: Lymph (sheep #498, 10 mg/day, Day 1): 28% | Differential Count: Mono (sheep #498, 10 mg/day, Day 1): 1% | Differential Count: Seg (sheep #498, 10 mg/day, Day 1): 68% | Gamma GT (sheep #498, 10 mg/day, Day 1): 74 U/L | Glucose (sheep #498, 10 mg/day, Day 1): 131 mg/dL | Hct (sheep #498, 10 mg/day, Day 1): 31.0% | Hgb (sheep #498, 10 mg/day, Day 1): 11.1 g/dL | MCH (sheep #498, 10 mg/day, Day 1): 9.6 pg | MCHC (sheep #498, 10 mg/day, Day 1): 32.0 g/dL | MCV (sheep #498, 10 mg/day, Day 1): 30.1 fL | Na+ (sheep #498, 10 mg/day, Day 1): 151 mEq/l | Platlet Count (sheep #498, 10 mg/day, Day 1): 592000 µL⁻¹ | RBC (sheep #498, 10 mg/day, Day 1): 1.153e+07 µL⁻¹ | WBC (sheep #498, 10 mg/day, Day 1): 6000 µL⁻¹ | Total Bili (sheep #498, 10 mg/day, Day 1): 0.2 mg/dL | Creatinine (sheep #498, 10 mg/day, Day 1): 1.6 mg/dL | Albumin (sheep #498, 10 mg/day, Day 1): 3.9 g/dL | K+ (sheep #498, 10 mg/day, Day 1): 4.4 mEq/l | Phos (sheep #498, 10 mg/day, Day 1): 3.8 Mg/dl | Total Prot (sheep #498, 10 mg/day, Day 1): 6.4 g/dL | ALT (sheep #498, 10 mg/day, Day 15): 7.0 U/L | AST (sheep #498, 10 mg/day, Day 15): 86 U/L | Alk Phos (sheep #498, 10 mg/day, Day 15): 87 U/L | BUN (sheep #498, 10 mg/day, Day 15): 16 Mg/dl | CPK (sheep #498, 10 mg/day, Day 15): 154 U/L | Cholesterol (sheep #498, 10 mg/day, Day 15): 63 Mg/dl | Differential Count: Bands (sheep #498, 10 mg/day, Day 15): 8% | Differential Count: Lymph (sheep #498, 10 mg/day, Day 15): 66% | Differential Count: Mono (sheep #498, 10 mg/day, Day 15): 3% | Differential Count: Seg (sheep #498, 10 mg/day, Day 15): 23% | Gamma GT (sheep #498, 10 mg/day, Day 15): 90 U/L | Glucose (sheep #498, 10 mg/day, Day 15): 78 mg/dL | Hct (sheep #498, 10 mg/day, Day 15): 44.8% | Hgb (sheep #498, 10 mg/day, Day 15): 13.3 g/dL | MCH (sheep #498, 10 mg/day, Day 15): 9.2 pg | MCHC (sheep #498, 10 mg/day, Day 15): 29.7 g/dL | MCV (sheep #498, 10 mg/day, Day 15): 31.1 fL | Na+ (sheep #498, 10 mg/day, Day 15): 151 mEq/l | Platlet Count (sheep #498, 10 mg/day, Day 15): 42000 µL⁻¹ | RBC (sheep #498, 10 mg/day, Day 15): 1.439e+07 µL⁻¹ | WBC (sheep #498, 10 mg/day, Day 15): 8600 µL⁻¹ | Total Bili (sheep #498, 10 mg/day, Day 15): 0.1 mg/dL | Creatinine (sheep #498, 10 mg/day, Day 15): 1.8 mg/dL | Albumin (sheep #498, 10 mg/day, Day 15): 3.4 g/dL | K+ (sheep #498, 10 mg/day, Day 15): 5.1 mEq/l | Phos (sheep #498, 10 mg/day, Day 15): 6.4 Mg/dl | Total Prot (sheep #498, 10 mg/day, Day 15): 6.7 g/dL | ALT (sheep #498, 10 mg/day, Day 43): 8.0 U/L | AST (sheep #498, 10 mg/day, Day 43): 89 U/L | Alk Phos (sheep #498, 10 mg/day, Day 43): 87 U/L | BUN (sheep #498, 10 mg/day, Day 43): 13 Mg/dl | CPK (sheep #498, 10 mg/day, Day 43): 203 U/L | Cholesterol (sheep #498, 10 mg/day, Day 43): 67 Mg/dl | Differential Count: Eosin (sheep #498, 10 mg/day, Day 43): 3% | Differential Count: Lymph (sheep #498, 10 mg/day, Day 43): 63% | Differential Count: Mono (sheep #498, 10 mg/day, Day 43): 1% | Differential Count: Seg (sheep #498, 10 mg/day, Day 43): 33% | Gamma GT (sheep #498, 10 mg/day, Day 43): 65 U/L | Glucose (sheep #498, 10 mg/day, Day 43): 77 mg/dL | Hct (sheep #498, 10 mg/day, Day 43): 34.7% | Hgb (sheep #498, 10 mg/day, Day 43): 10.5 g/dL
